# In patent US10988477B2 (Merck Patent GmbH, priority 2018, dated 2021):
# Key:
# GCN2 kinase = GCN2 kinase (Homo sapiens, UniProt Q9P2K8); assay: GCN2 enzyme inhibition assay (Transcreener ADP2 fluorescence polarization); format: biochemical; conditions: 280 μM ATP, 4 nM GCN2 kinase
# In short: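 4 nM GCN2 + 200 μM (RS)7 + compound (0–8 μM), 10 min preinc.; start with ATP (280 μM final); 1 h, 25 °C; pH 7.5 Tris/NaCl/MgCl2/DTT; ADP FP readout; IC50, Ki(app) via tight-binding fit.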
# [1] = biological target: intracellular GCN2 (phosphorylation of the GCN2 substrate eIF2α) (Homo sapiens, UniProt Q9P2K8); assay: GCN2 cellular inhibition assay (AlphaScreen SureFire P-eIF2α Ser51, borrelidin-treated U2OS cells); format: cell-based; conditions: biomarker assay, phosphorylated eIF2α Ser51 in borrelidin-treated U2OS cells
# In short: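 Compound effect on GCN2 is gauged by eIF2α Ser51 phosphorylation in borrelidin-challenged U2OS cells (10 μM, 1 h). Top compound level is 40 μM final.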
# [2] = test system: primary human pan T-cells; assay: Human IL-2 assay for GCN2 inhibition (IL-2 secretion by T cells in low amino acid condition); format: cell-based; conditions: T-cell; IL-2 secretion from human T cells, anti-CD3/CD28 stimulation, 96 hours; read-out: IL2/T-cell EC50
# Description: Tumor microenvironment is profoundly immuno-suppressive. This may be attributed to the depletion of amino acids (like arginine and tryptophan) which triggers the activation of GCN2 in immune cells, including T cell and myeloid cells. In T cells, activation of GCN2 leads to reduce effector functions of CD8 T cells and induction and/or maintenance of immuno-suppressive T-regs. Inhibition of that immuno-suppressive response by GCN2 inhibitors enables an anti-cancer immune response by activating effector T-cells. Herein we describe an in-vitro system we established using human T-cells stimulated in low amino acid condition in order to engage the GCN2 biology. The method described involves the modulation of IL-2 levels secreted by human T cells in responses to the GCN2 inhibitors disclosed herein.
# Amino acid-free RPMI was reconstituted with all but one of the amino acids found in standard RMPI (e.g. Arginine, Tryptophan), 10% charcoal-stripped fetal bovine serum, 100 Units/mL penicillin and 0.1 mg/mL streptomycin. Primary human pan T-cells were isolated using Pan T Cell Isolation Kit, human (MACS Miltenyi biotech Cat #Order no. 130-096-535) from apheresis cones and 5×104 pan T-cells per well. The purified T cells are seeded in Nunc™ 96-Well Polystyrene Round Bottom Microwell Plates (the cells are rested in No TRP media in a 15 ml falcon tube in the incubator for 30-45 minutes while titrations for tryptophan and the GCN2 inhibitor compound are made) A plate matrix was developed to titrate both a GCN2 inhibitor and the amino acid of interest ranging from “No Amino Acid” condition, up to the concentration found in the regular RPMI media (20 μM for TRP and 950 μM for Arginine). The cells were incubated for 30 min at 37° C. with the GCN2 inhibitor and then stimulated with 5×104 anti-CD3/CD28 Dynabeads® per well. After 96 hours of incubation the IL-2 level in the supernatant were measured using ELISA (R&D systems Cat #DY202 (Human IL-2 DuoSet ELISA). Data were plotted in GraphPad Prism software and EC50 is calculated.
# Chain of GCN2 kinase (Q9P2K8 whole entry): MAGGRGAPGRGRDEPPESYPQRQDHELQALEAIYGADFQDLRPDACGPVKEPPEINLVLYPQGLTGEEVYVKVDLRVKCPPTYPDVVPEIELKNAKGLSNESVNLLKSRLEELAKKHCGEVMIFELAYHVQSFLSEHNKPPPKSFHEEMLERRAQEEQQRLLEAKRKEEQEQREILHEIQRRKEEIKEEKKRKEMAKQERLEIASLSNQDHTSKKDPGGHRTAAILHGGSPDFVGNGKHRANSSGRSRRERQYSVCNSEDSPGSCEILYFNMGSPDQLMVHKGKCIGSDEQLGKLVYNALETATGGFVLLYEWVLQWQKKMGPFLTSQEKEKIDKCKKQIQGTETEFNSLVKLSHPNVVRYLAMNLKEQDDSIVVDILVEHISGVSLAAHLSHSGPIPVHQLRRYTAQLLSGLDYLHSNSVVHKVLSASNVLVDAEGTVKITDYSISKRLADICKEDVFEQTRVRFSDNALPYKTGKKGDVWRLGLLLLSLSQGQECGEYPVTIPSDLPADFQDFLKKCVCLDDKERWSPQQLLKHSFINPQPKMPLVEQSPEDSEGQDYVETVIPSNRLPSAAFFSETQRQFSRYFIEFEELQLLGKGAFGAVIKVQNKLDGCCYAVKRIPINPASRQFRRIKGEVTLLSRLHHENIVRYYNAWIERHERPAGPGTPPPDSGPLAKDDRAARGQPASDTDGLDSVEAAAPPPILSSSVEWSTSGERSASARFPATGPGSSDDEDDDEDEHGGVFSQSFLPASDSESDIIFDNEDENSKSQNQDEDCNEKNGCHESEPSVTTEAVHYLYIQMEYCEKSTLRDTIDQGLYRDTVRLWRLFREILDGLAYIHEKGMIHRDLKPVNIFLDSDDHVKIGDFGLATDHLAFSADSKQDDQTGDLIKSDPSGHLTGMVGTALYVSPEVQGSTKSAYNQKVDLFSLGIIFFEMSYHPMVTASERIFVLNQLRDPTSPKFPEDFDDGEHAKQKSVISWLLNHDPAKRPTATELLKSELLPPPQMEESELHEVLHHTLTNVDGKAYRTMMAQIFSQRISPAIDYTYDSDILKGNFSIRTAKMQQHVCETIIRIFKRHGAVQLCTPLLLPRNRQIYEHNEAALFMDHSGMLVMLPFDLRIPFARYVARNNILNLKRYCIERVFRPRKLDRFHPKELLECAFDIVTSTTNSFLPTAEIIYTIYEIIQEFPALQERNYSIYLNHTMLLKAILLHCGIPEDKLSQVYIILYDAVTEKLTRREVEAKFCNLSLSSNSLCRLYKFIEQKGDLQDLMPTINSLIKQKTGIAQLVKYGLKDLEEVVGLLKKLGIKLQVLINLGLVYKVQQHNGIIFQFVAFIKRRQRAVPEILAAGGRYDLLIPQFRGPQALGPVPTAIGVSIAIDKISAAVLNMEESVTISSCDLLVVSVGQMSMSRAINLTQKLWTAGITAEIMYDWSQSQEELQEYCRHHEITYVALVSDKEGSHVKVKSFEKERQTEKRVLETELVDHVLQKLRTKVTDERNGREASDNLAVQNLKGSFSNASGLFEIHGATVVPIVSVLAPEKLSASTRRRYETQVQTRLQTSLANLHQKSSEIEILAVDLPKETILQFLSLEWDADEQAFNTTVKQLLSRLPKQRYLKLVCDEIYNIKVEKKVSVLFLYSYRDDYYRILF
# Chain of intracellular GCN2 (phosphorylation of the GCN2 substrate eIF2α) (Q9P2K8 whole entry): as above
IC50 (GCN2 kinase; compounds of Formula IV),IC50 ([1]; compounds of Formula IV),EC50 [2],IC50 (GCN2 kinase; compounds of Formula II),IC50 ([1]; compounds of Formula II),Structure (SMILES)
< 10 nM,< 500 nM,100 to 500 nM,–,–,"Cc1n[nH]cc1[C@@H]1CN(c2ccnc(-c3cnc4cnc(C(F)(F)F)cn34)n2)C[C@H](C)O1 (stereo in doubt) [IV-763, (2S,6R)-2-methyl-6-(3-methyl-1H-pyrazol-4-yl)-4-(2-(6-(trifluoromethyl)imidazo[1,2-a]pyrazin-3-yl)pyrimidin-4-yl)morpholine]"
–,–,< 100 nM,< 10 nM,< 500 nM,"C[C@H]1[C@@H](CNS(C)(=O)=O)N(C2CC2)CCN1c1cc(-c2cnc3ccc(C(F)F)nn23)ncn1 [II-752, N-(((2R,3S)-1-cyclopropyl-4-(6-(6-(difluoromethyl)imidazo[12-b]pyridazin-3-yl)pyrimidin-4-yl)-3-methylpiperazin-2-yl)methyl)methanesulfonamide]"
–,–,> 500 nM,< 10 nM,< 500 nM,"Cc1[nH]ncc1[C@H]1CN(c2cc(-c3cnc4ccc(C(F)(F)F)nn34)ncn2)C[C@@H](C)O1 [II-768, (2R,6S)-2-methyl-6-(5-methyl-1H-pyrazol-4-yl)-4-(6-(6-(trifluoromethyl)imidazo[1,2-b]pyridazin-3-yl)pyrimidin-4-yl)morpholine]"
–,–,100 to 500 nM,10 to 1000 nM,–,C[C@H](NS(C)(=O)=O)[C@@H]1CN(c2cc(-c3cnc4ccc(C(F)F)nn34)ncn2)CCO1 [II-772]
< 10 nM,< 500 nM,100 to 500 nM,–,–,C[C@H]1C[C@@H](c2c[nH]nc2F)CN(c2ccnc(-c3cnc4cnc(C(F)(F)F)cn34)n2)C1 [IV-767]
< 10 nM,500 to 5000 nM,> 500 nM,–,–,"Cc1n[nH]cc1[C@H]1C[C@@H](O)CN(c2ccnc(-c3cnc4cnc(C(F)(F)F)cn34)n2)C1 [IV-776, (3R,5R)-5-(3-methyl-1H-pyrazol-4-yl)-1-(2-(6-(trifluoromethyl)imidazo[1,2-a]pyrazin-3-yl)pyrimidin-4-yl)piperidin-3-ol]"
